Experimental data as given in patent US9133240B2, “Compounds binding to the bacterial beta ring” (Centre National de la Recherche Scientifique, priority 2011, dated 2015).
Several values for one entry are separate records, joined by “and”; a condition that tells them apart may be missing. Equal values may be shown once. Square brackets hold non-standard residues; d marks the D form. Ends that are not written are not given here. Peptide text beside a SMILES is read from it. Phe(3,4-Cl2) = N[C@@H](Cc1ccc(Cl)c(Cl)c1)C(=O)O; Phe(4-Br) = N[C@@H](Cc1ccc(Br)cc1)C(=O)O; Phe(4-Cl) = N[C@@H](Cc1ccc(Cl)cc1)C(=O)O; Phe(4-Me) = Cc1ccc(C[C@H](N)C(=O)O)cc1; hCha = N[C@@H](CCC1CCCCC1)C(=O)O; tBuAla = CC(C)(C)C[C@H](N)C(=O)O; Cha = N[C@@H](CC1CCCCC1)C(=O)O; hLeu = CC(C)CC[C@H](N)C(=O)O

Legend:
E. coli β clamp = biological target: T1, E. coli β clamp (Escherichia coli, UniProt P0A988); experiment: SPR competition assay: inhibition of P1-β interaction by challenging peptides; format: binding; details: for ΔG: ΔG = −RT ln Ki; for Ki (10^6 M^−1): Ki = (1 + KA[β])/IC50;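 for all read-outs here: SPR responses corrected for background, then fitted with a 1:1 Langmuir binding model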
T1 construct: made in house; host or cells: E. coli BL21 (β); P1 by solid-phase synthesis
T1 sequence (P0A988 whole entry): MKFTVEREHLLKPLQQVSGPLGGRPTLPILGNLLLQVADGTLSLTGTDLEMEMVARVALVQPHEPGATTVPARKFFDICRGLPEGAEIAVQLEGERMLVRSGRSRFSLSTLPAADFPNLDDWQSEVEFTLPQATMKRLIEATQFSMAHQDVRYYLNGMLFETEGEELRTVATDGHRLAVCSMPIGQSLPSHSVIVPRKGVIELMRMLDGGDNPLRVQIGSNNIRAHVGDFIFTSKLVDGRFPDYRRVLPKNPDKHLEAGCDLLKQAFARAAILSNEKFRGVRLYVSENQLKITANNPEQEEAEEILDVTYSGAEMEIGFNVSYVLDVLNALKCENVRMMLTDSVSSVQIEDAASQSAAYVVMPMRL
Protocol: SPR experiments were performed on a Biacore® 3000. […] After subtraction of the background response, the data were fit to the 1:1 Langmuir model using BIAevaluation (Biacore™). […] IC50 values for each challenging peptide were determined by plotting the concentration of peptide against the percentage of binding inhibition. The IC50 value of each peptide was used to calculate Ki (Ki=(1+KA[β])/IC50) which measures the affinity of the challenging peptide for β in the competition assay, and AG was derived from Ki (ΔG=RT ln Ki).

β ring [1] = biological target: T2, β ring (Escherichia coli, UniProt P0A988); experiment: Isothermal titration calorimetry (ITC) of peptides into β ring solution; format: binding, E. coli; details: for N: number of binding sites per β monomer / ΔG / Kd / ΔS (cal/mol/deg): ITC; for ΔG: ΔG = ΔH-TΔS; for ΔΔG (Kcal/mol) = ΔGj − ΔGi, reference i = P7: compared to P7; for ΔΔG (Kcal/mol) = ΔGj − ΔGi, reference i = P11: compared to P11; for ΔΔG (Kcal/mol) = ΔGj − ΔGi, reference i = P13: compared to P13
T2 construct: made in house; host or cells: E. coli BL21
Protocol: ITC was performed by using a ITC200 microcalorimeter from MicroCal. Peptides (400 μM) were titrated in sequential injections (2 μl each) into a β ring solution (300 μl, 20 or 30 μM) at 25° C. Data were corrected from control experiments where peptides were injected in buffer solution (Hepes 10 mM pH 7.4, NaCl 0.15M, EDTA 3 mM, P20 0.005%). Data analysis was performed with Origin 7.0 software.
Target sequence in this assay (P0A988 whole entry): as above

β ring [2] = biological target: T2, β ring; experiment: IC50 SPR (μM)
Excerpt: Table printed on a drawing sheet, Figure 4
Head of the field: IC50 SPR (μM)
The patent's description of the figure: FIG. 4: Polymerase competition assay. […] Grey: biochemical assay, black: SPR assay. P15 sequence is Ac-RQLVLF, (SEQ ID No: 15), Scr: scrambled peptide: Ac-ChaFQLD, (SEQ ID No: 33).
First copying reader's note: The biochemical assay row is printed with decimal commas and the SPR row with decimal points.
Where the first naming reader finds the target: passage: the relative affinity of two compounds for the β ring is not dependent from the technique used for measuring said affinities (FIG. 4B)
Target sequence in this assay (P0A988 whole entry, looked up): as the sequence (P0A988 whole entry) above

[3] = peptide 400 μM, β 20 or 30 μM, 25° C
[4] = IC50 (μM), SPR, inhibition of binding of β ring (0.25 μM) to immobilized P1
[5] = Kd (nM), peptide 400 μM, β 20 or 30 μM, 25° C

Row | Molecule | ΔG (E. coli β clamp; SPR) [kcal/mol] | N: number of binding sites per β monomer (β ring [1]; [3]) | IC50 (E. coli β clamp; [4]) [µM] | Ki (10^6 M^−1) (E. coli β clamp; SPR) | other results
1 | CC(C)C[C@H](NC(=O)[C@H](CC(=O)O)NC(=O)[C@H](CC(C)C)NC(=O)[C@@H](N)CCC(N)=O)C(=O)N[C@@H](Cc1ccccc1)C(=O)O [Peptide P5, H-Gln-Leu-Asp-Leu-Phe-OH] | -6.87 | – | – | – | –
2 | CC(=O)N[C@@H](CCC(N)=O)C(=O)N[C@@H](CC(C)C)C(=O)N[C@@H](CC(=O)O)C(=O)N[C@@H](CC(C)C)C(=O)N[C@@H](Cc1ccccc1)C(=O)O [Peptide P6, Ac-Gln-Leu-Asp-Leu-Phe-OH] | -8.22 | 1.11 and 1.14 | – | – | –
3 | CC(=O)N[C@@H](CCC(N)=O)C(=O)N[C@@H](CC1CCCCC1)C(=O)N[C@@H](CC(=O)O)C(=O)N[C@@H](CC(C)C)C(=O)N[C@@H](Cc1ccccc1)C(=O)O [Peptide P7, Ac-Gln-Cha-Asp-Leu-Phe-OH] (Ac-Q[Cha]DLF-OH) | -9.42 | 0.74 and 0.76 | 0.17 | 8.01 10^6 M^−1 | Ki (E. coli β clamp): 170 nM; fold decrease in affinity compared to P14 (E. coli β clamp; SPR): 2 fold; fold increase in interaction/affinity compared to P6 (E. coli β clamp; SPR): 6 fold; ΔG (β ring [1]; 25° C): -8.9 kcal/mol; ΔΔG (Kcal/mol) = ΔGj − ΔGi, reference i = P6 (β ring [1]; from ITC data, compared to P6): -0.66 kcal/mol
4 | CC(=O)N[C@@H](CCC(N)=O)C(=O)N[C@@H](CCC1CCCCC1)C(=O)N[C@@H](CC(=O)O)C(=O)N[C@@H](CC(C)C)C(=O)N[C@@H](Cc1ccccc1)C(=O)O [Peptide P8, Ac-Gln-hCha-Asp-Leu-Phe-OH] (Ac-Q[hCha]DLF-OH) | -5.74 | – | 82.8 | 16.4 10^6 M^−1 | –
5 | CC(=O)N[C@@H](CCC(N)=O)C(=O)N[C@@H](CCC(C)C)C(=O)N[C@@H](CC(=O)O)C(=O)N[C@@H](CC(C)C)C(=O)N[C@@H](Cc1ccccc1)C(=O)O [Peptide P9, Ac-Gln-Hol-Asp-Leu-Phe-OH] | -8.54 | – | 0.74 | 1.84 10^6 M^−1 | –
6 | CC(=O)N[C@@H](CCC(N)=O)C(=O)N[C@@H](CC(C)(C)C)C(=O)N[C@@H](CC(=O)O)C(=O)N[C@@H](CC(C)C)C(=O)N[C@@H](Cc1ccccc1)C(=O)O [Peptide P10, Ac-Gln-NptGly-Asp-Leu-Phe-OH] (Ac-Q[tBuAla]DLF-OH) | -8.36 | – | 0.99 | 1.36 10^6 M^−1 | –
7 | CC(=O)N[C@@H](CCC(N)=O)C(=O)N[C@@H](CC1CCCCC1)C(=O)N[C@@H](CC(=O)O)C(=O)N[C@@H](CC(C)C)C(=O)N[C@@H](Cc1ccc(C)cc1)C(=O)O [Peptide P11, Ac-Gln-Cha-Asp-Leu-pMePhe-OH] (Ac-Q[Cha]DL[Phe(4-Me)]-OH) | -9.44 | 0.95 | 0.26 | 8.43 10^6 M^−1 | ΔG (β ring [1]; 25° C): -8.6 kcal/mol; ΔΔG (Kcal/mol) = ΔGj − ΔGi, reference i = P7 (β ring [1]; from ITC data): +0.25 Kcal/mol
8 | CC(=O)N[C@@H](CCC(N)=O)C(=O)N[C@@H](CC1CCCCC1)C(=O)N[C@@H](CC(=O)O)C(=O)N[C@@H](CC(C)C)C(=O)N[C@@H](Cc1ccc(Cl)cc1)C(=O)O [Peptide P12, Ac-Gln-Cha-Asp-Leu-pClPhe-OH] (Ac-Q[Cha]DL[Phe(4-Cl)]-OH) | -9.73 | 1.02 and 1.06 | 0.16 | 13.7 10^6 M^−1 | ΔΔG (Kcal/mol) = ΔGj − ΔGi, reference i = P7 (β ring [1]; from ITC data): -0.6 kcal/mol; ΔΔG (Kcal/mol) = ΔGj − ΔGi, reference i = P11 (β ring [1]; from ITC data): -0.85 kcal/mol; ΔΔG (Kcal/mol) = ΔGj − ΔGi, reference i = P13 (β ring [1]; from ITC data): -0.32 kcal/mol
9 | CC(=O)N[C@@H](CCC(N)=O)C(=O)N[C@@H](CC1CCCCC1)C(=O)N[C@@H](CC(=O)O)C(=O)N[C@@H](CC(C)C)C(=O)N[C@@H](Cc1ccc(Br)cc1)C(=O)O [Peptide P13, Ac-Gln-Cha-Asp-Leu-pBrPhe-OH] (Ac-Q[Cha]DL[Phe(4-Br)]-OH) | -9.71 | 0.85 and 0.83 | 0.096 | 13.49 10^6 M^−1 | ΔΔG (Kcal/mol) = ΔGj − ΔGi, reference i = P7 (β ring [1]; from ITC data): -0.28 kcal/mol; ΔΔG (Kcal/mol) = ΔGj − ΔGi, reference i = P11 (β ring [1]; from ITC data): -0.53 kcal/mol
10 | CC(=O)N[C@@H](CCC(N)=O)C(=O)N[C@@H](CC1CCCCC1)C(=O)N[C@@H](CC(=O)O)C(=O)N[C@@H](CC(C)C)C(=O)N[C@@H](Cc1ccc(Cl)c(Cl)c1)C(=O)O [Peptide P14, Ac-Gln-Cha-Asp-Leu-(3,4-di-Cl)Phe-OH] (Ac-Q[Cha]DL[Phe(3,4-Cl2)]-OH) | -9.85 | 0.91 and 0.90 | 0.077 | 17 10^6 M^−1 | fold increase compared to the full PolIV enzyme (E. coli β clamp): 4 fold; IC50 (E. coli β clamp; IC50 SPR (nM), SPR): 0.07 µM; fold increase in interaction/affinity compared to P6 (E. coli β clamp; SPR): 15 fold; fold increase compared to P1 (E. coli β clamp; SPR IC50): 115 fold; Kd (β ring [1]; [5]): ~60 nM; ΔΔG (Kcal/mol) = ΔGj − ΔGi, reference i = P7 (β ring [1]; from ITC data): -0.8 kcal/mol; ΔΔG (Kcal/mol) = ΔGj − ΔGi, reference i = P11 (β ring [1]; from ITC data): -1.05 kcal/mol; ΔΔG (Kcal/mol) = ΔGj − ΔGi, reference i = P12 (β ring [1]; from ITC data, compared to P12): -0.2 kcal/mol; ΔΔG (Kcal/mol) = ΔGj − ΔGi, reference i = P13 (β ring [1]; from ITC data): -0.52 kcal/mol
11 | CC(=O)N[C@@H](CCCNC(=N)N)C(=O)N[C@@H](CCC(N)=O)C(=O)N[C@@H](CC1CCCCC1)C(=O)N[C@@H](CCCNC(=N)N)C(=O)N[C@@H](CC(C)C)C(=O)N[C@@H](Cc1ccccc1)C(=O)O [Peptide P14-7, Ac R Q Cha R L F] (Ac-RQ[Cha]RLF-OH; N-terminus and C-terminus assumed) | – | – | – | – | affinity ratio compared to P7 (E. coli β clamp; SPR): at least 50
12 | CC(=O)N[C@@H](CCCNC(=N)N)C(=O)N[C@@H](CCC(N)=O)C(=O)N[C@@H](CC1CCCCC1)C(=O)N[C@@H](CCCCN)C(=O)N[C@@H](CC(C)C)C(=O)N[C@@H](Cc1ccccc1)C(=O)O [Peptide P14-8, Ac R Q Cha K L F] (Ac-RQ[Cha]KLF-OH; C-terminus assumed) | – | – | – | – | Ki (E. coli β clamp): 904 nM; affinity for the target (E. coli β clamp; SPR): 1 µM; fold decrease in affinity compared to P14 (E. coli β clamp; SPR): 10 fold
13 | CC(=O)N[C@@H](CCC(N)=O)C(=O)N[C@@H](CC1CCCCC1)C(=O)N[C@@H](CC(=O)O)C(=O)N[C@@H](CCC(C)C)C(=O)N[C@@H](Cc1ccccc1)C(=O)O [Peptide P16, Ac Q Cha D hLeu F] (Ac-Q[Cha]D[hLeu]F-OH; C-terminus assumed) | – | – | 0.23 | – | –
14 | CC(=O)N[C@@H](CCC(N)=O)C(=O)N[C@@H](CC1CCCCC1)C(=O)N[C@@H](CC(=O)O)C(=O)N[C@@H](CC1CCCCC1)C(=O)N[C@@H](Cc1ccccc1)C(=O)O [Peptide P17, Ac Q Cha D Cha F] (Ac-Q[Cha]D[Cha]F-OH; C-terminus assumed) | – | – | 0.31 | – | –
15 | CC(=O)N[C@@H](CCC(N)=O)C(=O)N[C@@H](CC1CCCCC1)C(=O)N[C@@H](CC(=O)O)C(=O)N[C@@H](CCC1CCCCC1)C(=O)N[C@@H](Cc1ccccc1)C(=O)O [Peptide P18, Ac Q Cha D hCha F] (Ac-Q[Cha]D[hCha]F-OH; C-terminus assumed) | – | – | 0.72 | – | –
16 | CC(=O)N[C@@H](CCC(N)=O)C(=O)N[C@@H](CC1CCCCC1)C(=O)N[C@@H](CC(=O)O)C(=O)N[C@@H](CC(C)(C)C)C(=O)N[C@@H](Cc1ccccc1)C(=O)O [Peptide P19, Ac Q ChaD NptGly F] (Ac-Q[Cha]D[tBuAla]F-OH; C-terminus assumed) | – | – | 5.63 | – | –
17 | CC(=O)N[C@@H](CCC(N)=O)C(=O)N[C@@H](CC1CCCCC1)C(=O)N[C@@H](CC(=O)O)C(=O)N[C@@H](CC(C)C)C(=O)N[C@@H](CC1CCCCC1)C(=O)O [Peptide P20, Ac-Q Cha DL Cha] (Ac-Q[Cha]DL[Cha]-OH; C-terminus assumed) | – | – | 0.41 | – | –
18 | CC(=O)N[C@@H](CCC(N)=O)C(=O)N[C@@H](CC1CCCCC1)C(=O)N[C@@H](CC(=O)O)C(=O)N[C@@H](CC(C)C)C(=O)N[C@@H](Cc1c[nH]c2ccccc12)C(=O)O [Peptide P21, Ac-Q Cha DLW] (Ac-Q[Cha]DLW-OH; C-terminus assumed) | – | – | 0.64 | – | –
19 | Ac-RQLVLF [Peptide P15, Ac-RQLVLF] | – | – | – | – | IC50 (β ring [2]): 1910 nM
20 | H-RQLVFL-OH [Peptide P4, H-Arg-Gln-Leu-Val-Phe-Leu-OH] | – | – | 256 | – | –
21 | H-RQLVLF-OH [Peptide P3, H-Arg-Gln-Leu-Val-Leu-Phe-OH] | -7.04 | 1.54 and 1.45 | 8.62 | 0.15 10^6 M^−1 | ΔS (cal/mol/deg) (β ring [1]; 25° C): 6.05 cal/mol/deg and 6.6 cal/mol/deg; Kd (β ring [1]; [5]): 2820 nM and 2320 nM
22 | H-RQLVLGL-OH [Peptide P1, H-Arg-Gln-Leu-Val-Leu-Gly-Leu-OH, reference compound] | -7.06 | 1.33 and 1.31 | 8.85 | 0.15 10^6 M^−1 | fold less efficient binding to the ring compared to the whole polymerase PolIV (E. coli β clamp; SPR): 30 fold; ΔS (cal/mol/deg) (β ring [1]; 25° C): 12.8 cal/mol/deg and 7.6 cal/mol/deg; Kd (β ring [1]; affinity (ITC)): 1000 to 2000 nM
23 | H-RQLVLL-OH [Peptide P2, H-Arg-Gln-Leu-Val-Leu-Leu-OH] | -6.54 | – | 21.5 | 0.0063 10^6 M^−1 | –
